# Reference: article PMC12203311, “Design, synthesis, in silico and in vitro evaluation of pyrrole–indole hybrids as dual tubulin and aromatase inhibitors with potent anticancer activities” (RSC Advances, 2025)
# Tests used:
# CCRF-CEM = test: NCI60 five-dose screen; assay type: cell-based; conditions: Homo sapiens, leukemia; for CC50: read-out: LC50 (the source's name)
# SW-620 = test: NCI60 five-dose screen; assay type: cell-based; conditions: Homo sapiens, SW-620, colon cancer; for CC50: read-out: LC50 (the source's name)
# SF-268 = test: NCI60 five-dose screen; assay type: cell-based; conditions: Homo sapiens, SF-268, CNS cancer; for CC50: read-out: LC50 (the source's name)
# U251 = test: NCI60 five-dose screen; assay type: cell-based; conditions: Homo sapiens, U-251, U251, CNS cancer; for CC50: read-out: LC50 (the source's name)
# MALME-3M = test: NCI60 five-dose screen; assay type: cell-based; conditions: Homo sapiens, melanoma; for CC50: read-out: LC50 (the source's name)
# SK-OV-3 = test: NCI60 five-dose screen; assay type: cell-based; conditions: Homo sapiens, SK-OV-3, ovarian cancer; for CC50: read-out: LC50 (the source's name)
# A498 = test: NCI60 five-dose screen; assay type: cell-based; conditions: Homo sapiens, A498, renal cancer; for CC50: read-out: LC50 (the source's name)
# RXF 393 = test: NCI60 five-dose screen; assay type: cell-based; conditions: Homo sapiens, RXF 393, renal cancer; for CC50: read-out: LC50 (the source's name)
# SN12C = test: NCI60 five-dose screen; assay type: cell-based; conditions: Homo sapiens, renal cancer; for CC50: read-out: LC50 (the source's name)
# MCF7 = test: NCI60 five-dose screen; assay type: cell-based; conditions: Homo sapiens; for CC50: read-out: LC50 (the source's name)
# T-47D = test: NCI60 five-dose screen; assay type: cell-based; conditions: Homo sapiens, T47D, breast cancer; for CC50: read-out: LC50 (the source's name)
# porcine brain tubulin = target: T1, porcine brain tubulin (Sus scrofa, UniProt P02550+P02554); test: Tubulin polymerisation assay (fluorescence-based); assay type: biochemical; conditions: 10 µM, 37 °C
# T1 construct: a solution containing porcine brain tubulin (2 mg mL^−1); purchased Cytoskeleton BK011P; host or cells: porcine brain (tissue-purified)
# Experimental: The tubulin polymerisation experimental protocol followed the method described in this literature.[28] The experimental was using fluorescence-based assay kit (Cytoskeleton, catalog no. BK011P). In Brief, 5 µL of test compounds was added to a 96-well plate, then mix with 50 µL of a solution containing porcine brain tubulin (2 mg mL^−1) in buffer with 20% glycerol and 1 mM GTP. A microplate reader (Varioskan™ LUX multimode microplate reader, Thermo Scientific™) was used to measure fluorescence intensity every 60 seconds for 60 minutes, with excitation at 360 nm and emission at 450 nm, maintained at 37 °C throughout the experiment.
# SR = test: NCI60 five-dose screen; assay type: cell-based; conditions: Homo sapiens, leukemia; for CC50: read-out: LC50 (the source's name)
# T1 sequence (P02554 whole entry): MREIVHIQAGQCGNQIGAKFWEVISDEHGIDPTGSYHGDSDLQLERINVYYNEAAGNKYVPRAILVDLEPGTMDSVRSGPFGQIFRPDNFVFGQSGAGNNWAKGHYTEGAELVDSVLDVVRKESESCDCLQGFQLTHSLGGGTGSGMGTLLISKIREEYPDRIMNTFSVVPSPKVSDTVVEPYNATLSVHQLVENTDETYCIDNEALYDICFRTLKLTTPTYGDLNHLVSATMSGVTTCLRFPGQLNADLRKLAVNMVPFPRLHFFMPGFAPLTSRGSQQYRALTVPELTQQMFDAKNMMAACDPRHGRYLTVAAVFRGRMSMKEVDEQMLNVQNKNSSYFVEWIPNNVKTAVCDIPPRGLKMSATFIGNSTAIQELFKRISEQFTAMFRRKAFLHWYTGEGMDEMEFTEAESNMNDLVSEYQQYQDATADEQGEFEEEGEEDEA
# T1 sequence (P02550 whole entry): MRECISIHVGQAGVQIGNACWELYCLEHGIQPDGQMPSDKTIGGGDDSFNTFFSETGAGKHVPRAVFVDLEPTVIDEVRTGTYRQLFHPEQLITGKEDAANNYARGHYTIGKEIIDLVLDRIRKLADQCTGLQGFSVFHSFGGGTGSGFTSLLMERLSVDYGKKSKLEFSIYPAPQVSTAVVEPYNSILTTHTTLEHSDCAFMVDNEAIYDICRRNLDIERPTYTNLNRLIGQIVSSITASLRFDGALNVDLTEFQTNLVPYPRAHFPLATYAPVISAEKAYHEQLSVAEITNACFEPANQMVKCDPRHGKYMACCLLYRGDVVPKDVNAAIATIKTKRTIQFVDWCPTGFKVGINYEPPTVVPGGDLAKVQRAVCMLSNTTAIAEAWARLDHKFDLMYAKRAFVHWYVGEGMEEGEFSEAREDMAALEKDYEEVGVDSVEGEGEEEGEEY
SMILES,GI50 (CCRF-CEM) [µM],CC50 (CCRF-CEM) [µM],GI50 (SW-620) [µM],CC50 (SW-620) [µM],GI50 (SF-268) [µM],CC50 (SF-268) [µM],GI50 (U251) [µM],CC50 (U251) [µM],GI50 (MALME-3M) [µM],CC50 (MALME-3M) [µM],GI50 (SK-OV-3) [µM],CC50 (SK-OV-3) [µM],GI50 (A498) [µM],CC50 (A498) [µM],GI50 (RXF 393) [µM],CC50 (RXF 393) [µM],GI50 (SN12C) [µM],CC50 (SN12C) [µM],"CC50 (MCF7; MCF7, breast cancer) [µM]",GI50 (T-47D) [µM],also measured
"O=C(N/N=C/c1cc[nH]c1)c1[nH]c2ccc(Br)cc2c1-c1ccccc1 [Derivative 3b, (E)-N′-((1H-Pyrrol-3-yl)methylene)-5-bromo-3-phenyl-1H-indole-2-carbohydrazide]",0.821,> 100,0.548,49.4,2.41,59.1,2.08,40.8,3.46,48.3,5.59,71.9,12.7,54.6,1.78,46.5,1.49,37.7,49.8,3.49,"GI50 (MCF7; MCF7, breast cancer): 0.436 µM; CC50 (T-47D): > 100 µM; tubulin inhibition (porcine brain tubulin): weak tubulin inhibitors"
"Cn1cccc1/C=N/NC(=O)c1[nH]c2ccc(Br)cc2c1-c1ccccc1 [Derivative 3d, (E)-5-Bromo-N′-((1-methyl-1H-pyrrol-2-yl)methylene)-3-phenyl-1H-indole-2-carbohydrazide]",0.429,> 100,0.432,> 100,0.547,> 100,0.477,> 100,0.409,> 100,1.61,> 100,> 100,> 100,0.28,> 100,0.497,> 100,> 100,0.344,"GI50 (MCF7; MCF7, MCF-7 breast cancer cells): 0.072 µM; CC50 (T-47D): > 100 µM; tubulin inhibition (porcine brain tubulin): weak tubulin inhibitors"
"O=C(N/N=C/c1cc(Br)c[nH]1)c1[nH]c2ccc(Br)cc2c1-c1ccccc1 [Derivative 3e, (E)-5-Bromo-N′-((4-bromo-1H-pyrrol-2-yl)methylene)-3-phenyl-1H-indole-2-carbohydrazide]",0.341,> 100,0.405,59.4,0.529,52.9,0.418,10.1,0.665,32.5,0.966,53.8,5.47,44.5,0.497,37.9,0.31,5.49,30.7,1.4,"GI50 (MCF7; MCF7, breast cancer): 0.294 µM; CC50 (T-47D): 82.5 µM; RFU in tubulin polymerization assay (porcine brain tubulin): ~50 arbitrary units"
"O=C(N/N=C/c1[nH]ccc1Cl)c1[nH]c2ccc(Br)cc2c1-c1ccccc1 [Derivative 3g, (E)-5-Bromo-N′-((3-chloro-1H-pyrrol-2-yl)methylene)-3-phenyl-1H-indole-2-carbohydrazide]",1.53,> 100,0.499,50.2,1.76,53,0.63,37.7,0.596,48.4,11.6,64.1,10.6,49.3,0.346,42.1,1.34,29.2,42.2,2.5,"GI50 (MCF7; MCF7, breast cancer): 0.376 µM; CC50 (T-47D): 81.9 µM; tubulin inhibition (porcine brain tubulin): weak tubulin inhibitors"
"CCOC(=O)c1ccc(/C=N/NC(=O)c2[nH]c3ccc(Br)cc3c2-c2ccccc2)[nH]1 [Derivative 3i, Ethyl (E)-5-((2-(5-bromo-3-phenyl-1H-indole-2-carbonyl)hydrazono)methyl)-1H-pyrrole-2-carboxylate]",3.04,> 100,3.93,53.6,2.68,> 100,2.82,39.4,3.83,54.8,4.01,> 100,10.5,55.2,1.69,66.4,2.86,36.2,> 100,4.2,"GI50 (MCF7; MCF7, breast cancer): 1.54 µM; CC50 (T-47D): > 100 µM"
"CCOC(=O)c1c[nH]c(/C=N/NC(=O)c2[nH]c3ccc(Br)cc3c2-c2ccccc2)c1 [Derivative 3j, Ethyl (E)-5-((2-(5-bromo-3-phenyl-1H-indole-2-carbonyl)hydrazono)methyl)-1H-pyrrole-3-carboxylate]",2.41,> 100,3.36,76.2,2.29,46.3,2.66,40.6,6.06,54.9,4.53,45.3,3.53,43.4,1.36,22,2.49,33.3,50.2,2.91,"GI50 (SR): 0.948 µM; CC50 (SR): > 100 µM; GI50 (MCF7; MCF7, breast cancer): 2.76 µM; CC50 (T-47D): 86.9 µM"
"O=C(N/N=C/c1ccc(C(=O)N2CCOCC2)[nH]1)c1[nH]c2ccc(Br)cc2c1-c1ccccc1 [Derivative 3n, (E)-5-Bromo-N′-((5-(morpholine-4-carbonyl)-1H-pyrrol-2-yl)methylene)-3-phenyl-1H-indole-2-carbohydrazide]",3.45,> 100,3.26,> 100,2.51,> 100,3.1,84.7,11.7,> 100,5.68,> 100,3.53,59.9,1.06,14.7,3.14,79.7,77.8,3.1,"GI50 (SR): 0.405 µM; CC50 (SR): 38.9 µM; GI50 (MCF7; MCF7, breast cancer): 2.46 µM; CC50 (T-47D): > 100 µM"
"Cc1[nH]c(/C=N/NC(=O)c2[nH]c3ccc(Br)cc3c2-c2ccccc2)c(C)c1[N+](=O)[O-] [Derivative 3r, (E)-5-Bromo-N′-((3,5-dimethyl-4-nitro-1H-pyrrol-2-yl)methylene)-3-phenyl-1H-indole-2-carbohydrazide]",1.89,> 100,2.06,19.1,2.37,33.1,1.85,13.4,1.99,28.5,3.23,39.2,2.35,27.6,1.7,15.9,1.74,6.73,29.9,2.51,"GI50 (SR): 2.04 µM; CC50 (SR): > 100 µM; GI50 (MCF7; MCF7, breast cancer): 2.57 µM; CC50 (T-47D): 33.5 µM"
"CCOC(=O)c1cc(/C=N/NC(=O)c2[nH]c3ccc(Br)cc3c2-c2ccccc2)c[nH]1 [Derivative 3v, Ethyl (E)-4-((2-(5-bromo-3-phenyl-1H-indole-2-carbonyl)hydrazono)methyl)-1H-pyrrole-2-carboxylate]",3.7,> 100,4.41,40.1,6.04,> 100,3.8,37.6,4.32,52.8,1.31,80.3,12.9,52.1,2.56,33,3.63,38.1,40.3,5.88,"GI50 (MCF7; MCF7, breast cancer): 3.03 µM; CC50 (T-47D): > 100 µM"
